Results taken from patent publication US4808517A (priority 1985, dated 1989).

Test system: submitochondrial particles
Type: biochemical

## Oc1c(Cl)c(Cl)c(Cl)c(Cl)c1Cl [Pentachlorophenol]
  Inhibition of maximum NADH concentration: 39%
